These compounds were tested against GCN2 (Homo sapiens (Human), UniProt Q9P2K8) (assay: TR-FRET biochemical assay for inhibition of GCN2). Settings: not given.
GCN2, sequence (Q9P2K8 whole entry): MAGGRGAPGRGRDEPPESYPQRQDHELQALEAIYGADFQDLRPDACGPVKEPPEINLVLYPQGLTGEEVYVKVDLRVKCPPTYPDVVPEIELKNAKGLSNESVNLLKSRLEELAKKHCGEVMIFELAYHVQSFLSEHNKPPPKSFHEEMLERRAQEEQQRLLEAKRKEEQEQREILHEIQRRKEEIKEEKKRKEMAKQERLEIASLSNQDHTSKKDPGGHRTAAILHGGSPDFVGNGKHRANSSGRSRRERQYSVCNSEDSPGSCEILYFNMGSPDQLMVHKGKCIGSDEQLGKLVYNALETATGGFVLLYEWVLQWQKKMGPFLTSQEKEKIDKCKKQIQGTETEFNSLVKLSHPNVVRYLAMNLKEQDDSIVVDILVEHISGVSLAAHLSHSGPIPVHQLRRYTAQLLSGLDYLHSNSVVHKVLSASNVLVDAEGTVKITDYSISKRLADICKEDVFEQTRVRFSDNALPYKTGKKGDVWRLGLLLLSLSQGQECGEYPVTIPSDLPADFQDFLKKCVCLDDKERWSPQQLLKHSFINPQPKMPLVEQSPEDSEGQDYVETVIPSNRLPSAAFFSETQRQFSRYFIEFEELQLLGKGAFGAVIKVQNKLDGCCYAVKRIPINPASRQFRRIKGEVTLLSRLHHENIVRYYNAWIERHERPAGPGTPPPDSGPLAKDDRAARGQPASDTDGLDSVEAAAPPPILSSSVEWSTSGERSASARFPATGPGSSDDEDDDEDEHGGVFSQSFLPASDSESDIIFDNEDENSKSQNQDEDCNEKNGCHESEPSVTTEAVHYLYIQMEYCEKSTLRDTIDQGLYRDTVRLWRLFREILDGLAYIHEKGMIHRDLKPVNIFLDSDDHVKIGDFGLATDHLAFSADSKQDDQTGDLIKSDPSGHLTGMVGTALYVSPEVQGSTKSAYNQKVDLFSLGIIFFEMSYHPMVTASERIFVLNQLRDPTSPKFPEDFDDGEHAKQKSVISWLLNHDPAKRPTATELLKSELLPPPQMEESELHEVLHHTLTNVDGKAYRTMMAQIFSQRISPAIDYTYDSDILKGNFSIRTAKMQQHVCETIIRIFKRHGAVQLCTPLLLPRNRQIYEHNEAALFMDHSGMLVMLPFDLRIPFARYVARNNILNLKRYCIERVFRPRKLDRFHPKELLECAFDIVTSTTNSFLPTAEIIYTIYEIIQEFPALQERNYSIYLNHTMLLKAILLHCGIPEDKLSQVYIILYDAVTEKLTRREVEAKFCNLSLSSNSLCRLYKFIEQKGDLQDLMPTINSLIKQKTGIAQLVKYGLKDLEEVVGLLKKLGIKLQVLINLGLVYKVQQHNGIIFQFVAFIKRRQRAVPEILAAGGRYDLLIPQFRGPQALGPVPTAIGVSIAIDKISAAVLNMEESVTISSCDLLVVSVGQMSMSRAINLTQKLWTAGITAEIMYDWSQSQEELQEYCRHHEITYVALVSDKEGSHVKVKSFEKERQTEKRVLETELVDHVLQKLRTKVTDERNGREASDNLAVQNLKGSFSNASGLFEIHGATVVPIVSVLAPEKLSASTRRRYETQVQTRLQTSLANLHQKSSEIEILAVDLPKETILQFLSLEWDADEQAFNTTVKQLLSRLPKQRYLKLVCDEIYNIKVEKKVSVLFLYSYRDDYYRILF

Question: How did the IC50 turn out when `CNC(=O)c1ncn2c(F)c(-c3c(F)ccc(NS(=O)(=O)c4cc(F)cnc4OC)c3F)ncc12` [Compound 170, 6-[2,6-difluoro-3-(5-fluoro-2-methoxypyridine-3-sulfonamido)phenyl]-5-fluoro-N-methylimidazo[1,5-a]pyrazine-1-carboxamide] was run?
Answer: 50 to 500 nM

Question: With `COc1ncc(Cl)cc1S(=O)(=O)Nc1ccc(F)c(-c2cn3cnc(C(=O)NCCCN(C)C)c3cn2)c1F` [Compound 172, 6-[3-(5-chloro-2-methoxypyridine-3-sulfonamido)-2,6-difluorophenyl]-N-[3-(dimethylamino)propyl]imidazo[1,5-a]pyrazine-1-carboxamide] as the compound, how does the IC50 read?
Answer: 50 to 500 nM

Question: For `COc1ncc(Cl)cc1S(=O)(=O)Nc1ccc(F)c(-c2cn3cnc(C(=O)N[C@@H]4CCN(C)C4)c3cn2)c1F` [Compound 173-1, (R)-6-(3-((5-chloro-2-methoxypyridine)-3-sulfonamido)-2,6-difluorophenyl)-N-(1-methylpyrrolidin-3-yl)imidazo[1,5-a]pyrazine-1-carboxamide], which IC50 is on record?
Answer: 50 to 500 nM

Question: With `CNC(=O)c1ncn2cc(-c3c(F)ccc(NS(=O)(=O)c4cc(Cl)cnc4OCC(C)C)c3F)ncc12` [Compound 176, 6-[3-[5-chloro-2-(2-methylpropoxy)pyridine-3-sulfonamido]-2,6-difluorophenyl]-N-methylimidazo[1,5-a]pyrazine-1-carboxamide] as the compound, how does the IC50 read?
Answer: 500 to 1000 nM

Question: How did the IC50 turn out when `COc1ncc(F)cc1S(=O)(=O)Nc1ccc(F)c(-c2cn3cnc(-c4[nH]cnc4C4CC4)c3cn2)c1F` [Compound 177, N-[3-[1-(5-cyclopropyl-3H-imidazol-4-yl)imidazo[1,5-a]pyrazin-6-yl]-2,4-difluorophenyl]-5-fluoro-2-methoxypyridine-3-sulfonamide] was run?
Answer: 50 to 500 nM

Question: For `COc1ncc(Cl)cc1S(=O)(=O)Nc1ccc(F)c(-c2cn3cnc(C(=O)NCCN(C)C)c3cn2)c1F` [Compound 179, 6-[3-(5-chloro-2-methoxypyridine-3-sulfonamido)-2,6-difluorophenyl]-N-[2-(dimethylamino)ethyl]imidazo[1,5-a]pyrazine-1-carboxamide], which IC50 is on record?
Answer: 50 to 500 nM

Question: For `COc1ncc(Cl)cc1S(=O)(=O)Nc1ccc(F)c(-c2cn3cnc(C(=O)NCCN4CCCC4=O)c3cn2)c1F` [Compound 180, 6-[3-(5-chloro-2-methoxypyridine-3-sulfonamido)-2,6-difluorophenyl]-N-[2-(2-oxopyrrolidin-1-yl)ethyl]imidazo[1,5-a]pyrazine-1-carboxamide], which IC50 is on record?
Answer: 50 to 500 nM

Question: With `CNC(=O)c1ncn2cc(-c3c(F)ccc(NS(=O)(=O)c4cc(Cl)cnc4OCC(F)(F)F)c3F)ncc12` [Compound 182, 6-[3-[5-chloro-2-(2,2,2-trifluoroethoxy)pyridine-3-sulfonamido]-2,6-difluorophenyl]-N-methylimidazo[1,5-a]pyrazine-1-carboxamide] as the compound, how does the IC50 read?
Answer: 500 to 1000 nM

Question: `CNC(=O)c1ncn2c(F)c(-c3c(F)ccc(NS(=O)(=O)c4cc(F)cnc4C)c3F)ncc12` [Compound 184, 6-[2,6-difluoro-3-(5-fluoro-2-methylpyridine-3-sulfonamido)phenyl]-5-fluoro-N-methylimidazo[1,5-a]pyrazine-1-carboxamide] was tested. Which IC50 did it give?
Answer: 50 to 500 nM

Same assay, conditions: GCN2 2 nM, 100 nM GFP-eIF2a, 150 μM ATP, TR-FRET

Question: `COc1ncc(Cl)cc1S(=O)(=O)Nc1ccc(F)c(-c2cn3cnc(C(N)=O)c3cn2)c1F` [Compound 171, 6-[3-(5-chloro-2-methoxypyridine-3-sulfonamido)-2,6-difluorophenyl]imidazo[1,5-a]pyrazine-1-carboxamide] was tested. Which IC50 did it give?
Answer: < 50 nM

Question: Which IC50 does the source give for `COc1ncc(Cl)cc1S(=O)(=O)Nc1ccc(F)c(-c2cn3cnc(C(=O)N[C@H]4CCN(C)C4)c3cn2)c1F` [Compound 173-2, (S)-6-(3-((5-chloro-2-methoxypyridine)-3-sulfonamido)-2,6-difluorophenyl)-N-(1-methylpyrrolidin-3-yl)imidazo[1,5-a]pyrazine-1-carboxamide] here?
Answer: < 50 nM

Question: `COc1ncc(Cl)cc1S(=O)(=O)Nc1ccc(F)c(-c2cn3cnc(C(=O)Nc4cnoc4)c3cn2)c1F` [Compound 174, 6-[3-(5-chloro-2-methoxypyridine-3-sulfonamido)-2,6-difluorophenyl]-N-(1,2-oxazol-4-yl)imidazo[1,5-a]pyrazine-1-carboxamide] was tested. Which IC50 did it give?
Answer: < 50 nM

Question: Which IC50 does the source give for `COc1ncc(Cl)cc1S(=O)(=O)Nc1ccc(F)c(-c2cn3cnc(C(=O)NCCN4CCOCC4)c3cn2)c1F` [Compound 175, 6-[3-(5-chloro-2-methoxypyridine-3-sulfonamido)-2,6-difluorophenyl]-N-[2-(morpholin-4-yl)ethyl]imidazo[1,5-a]pyrazine-1-carboxamide] here?
Answer: < 50 nM

Question: With `COc1ncc(F)cc1S(=O)(=O)Nc1ccc(F)c(-c2cn3cnc(-c4nc(Cc5ccccc5)c[nH]4)c3cn2)c1F` [Compound 178, N-[3-[1-(4-benzyl-1H-imidazol-2-yl)imidazo[1,5-a]pyrazin-6-yl]-2,4-difluorophenyl]-5-fluoro-2-methoxypyridine-3-sulfonamide] as the compound, how does the IC50 read?
Answer: < 50 nM

Question: With `COc1ncc(Cl)cc1S(=O)(=O)Nc1ccc(F)c(-c2cn3cnc(C(=O)Nc4ccc(CN(C)C)cc4)c3cn2)c1F` [Compound 181, 6-[3-(5-chloro-2-methoxypyridine-3-sulfonamido)-2,6-difluorophenyl]-N-[4-[(dimethylamino)methyl]phenyl]imidazo[1,5-a]pyrazine-1-carboxamide] as the compound, how does the IC50 read?
Answer: < 50 nM

Question: With `CNC(=O)c1ncn2cc(-c3c(F)ccc(NS(=O)(=O)c4cc(Cl)cnc4OCc4ccccc4)c3F)ncc12` [Compound 183, 6-[3-[2-(benzyloxy)-5-chloropyridine-3-sulfonamido]-2,6-difluorophenyl]-N-methylimidazo[1,5-a]pyrazine-1-carboxamide] as the compound, how does the IC50 read?
Answer: > 1000 nM

Question: `COc1ncc(F)cc1S(=O)(=O)Nc1ccc(F)c(-c2ccc3c(-c4nc5ccc(N6CCN(C)CC6)cc5[nH]4)ncn3c2)c1F` [Compound 185, N-(2,4-difluoro-3-[1-[5-(4-methylpiperazin-1-yl)-3H-1,3-benzodiazol-2-yl]imidazo[1,5-a]pyridin-6-yl]phenyl)-5-fluoro-2-methoxypyridine-3-sulfonamide] was tested. Which IC50 did it give?
Answer: < 50 nM

Question: Which IC50 does the source give for `CNC(=O)c1ncn2c(F)c(-c3c(F)ccc(NS(=O)(=O)c4cc(Cl)cnc4C)c3F)ncc12` [Compound 186, 6-[3-(5-chloro-2-methylpyridine-3-sulfonamido)-2,6-difluorophenyl]-5-fluoro-N-methylimidazo[1,5-a]pyrazine-1-carboxamide] here?
Answer: < 50 nM

From US20240083897A1, “GCN2 MODULATING COMPOUNDS AND USES THEREOF” (HiberCell, Inc., priority 2021, published 2024)
